What was measured:
[1] = tested on: cell line ALL-1 (b1a2 junction); assay: Leukemic cell number of Ph1-positive ALL cell line expressing b1a2 junction; type: cell-based, human; conditions: 50 μg at time zero, 25 μg/ml at 24 and 48 h; vs control and mismatch-treated cultures (FIG. 6)
K562 = conditions: Caracciolo et al., Science 245; cited from earlier work
bcr-abl protein = conditions: cited from earlier work
BV173 cells (b2/a2) = assay: Proliferation of BV173 cells expressing b2a2 junction; type: cell-based, human
Description: Amplification of the bcr-abl junction with a 5' primer corresponding to bcr exon 2, and a 3' primer corresponding to abl exon 2, followed by hybridization to an 18-mer specific for the b2/a2 or the b3/a2 junction identified the b2/a2 breakpoint in these cells (data not shown).
The sensitivity of the BV173 cells to b2/a2 antisense phosphorothioate oligodeoxynucleotides was assessed. Phosphorothioate oligodeoxynucleotides were prepared on either an Applied Biosystems Model 380B or 390Z Automated Synthesis instrument using conventional phosphoramidite monomers and manufacturer-recommended procedures, which included substitution of tetraethylthiuran (or an equivalent sulfur-donor reagent) for iodine-water-pyridine, […] reversed-phase preparative chromatography, detritylation, and obtaining the final product in the form of its sodium salt, all according to previously published methodology: Zon and Stec, in Oligonucleotides and Analogues A Practical Approach, F. Eckstein, Ed. (Oxford Univerisity Press, Oxford 1991), pp. 87-108; Zon and Geiser, Anti-Cancer Drug Design 6, 539 (1991); Vu and Hirschenbein, Tetrahedron Lett. 32, 3005-3008 (1991).
BV173 cells were cultured in the presence of phosphorothioate b2/a2 antisense 26-mer CGCTGAAGGG CTTCTTCCT ATTGAT (SEQ ID NO:29), the phosphorothioate sense sequence ATCAATAAGGAAGCCCTTCAGCG (SEQUENCE ID NO:34), or the b3/a2 (SEQ ID NO:31) or b1/a2 (SEQ ID N0:33) phosphorothioate antisense 26-mer. […] The sense oligomer SEQ ID NO:34 gave no inhibition (FIG. 7, -.largecircle.-) in comparison to untreated control cells (FIG. 7, -.quadrature.-).

BV173 cells [2] = assay: Clonogenic assay of tissues of leukemic SCID mice; type: in vivo, SCID mice (human leukemic cells)
Description: A second assay for leukemic disease comprised a clonogenic assay in semisolid medium. […] By contrast, BV173 cells formed numerous, rapidly growing colonies. To rule out the possibility that the presence of BV173 cells permitted the growth of murine progenitors, mixing experiments were carried out.
(§1) To determine whether synthetic phosphorothioate oligodeoxynucleotides targeted against the bcr-abl junction of […] cells would modify the disease process in SCID mice. SCID mice were injected with 10^6 BV173 cells. The mice then received 1 mg of sense (ATCAATAAGG AAGCCCTTCAGCG, SEQ ID NO:34) or antisense ([…] ATTGAT, SEQ ID NO:29) b2/a2 bcr-abl phosphorothioate oligodeoxynucleotides (pyrogen leven <1 Eu/mg; 0.2 ml in Iscove modified Dulbecco medium in 5-10 seconds) intravenously for each of 9 consecutive days, beginning either 7 or 21 days after introducing 10^6 BV173 cells. Control mice received the diluent (iscove's modified Dulbecco medium) only. These time points approximate distinct disease stages in humans.
10^5 cells were plated in duplicate in 35×10 mm tissue culture dishes (Nunc, Inc., Naperville, Ill.) in HCC-4230 medium (Terry Fox Lab., Vancouver, Canada) supplemented with 2.5 mM L-glutamine, and allowed to grow for 12 days. Plates were scanned with an inverted microscope and total colony number was determined. The results are shown in FIG. 9 (C, untreated mouse; S, sense-treated mouse, AS, antisense-treated mouse).

[3] = tested on: BV173 cells (cALL antigen (CALLA)-positive cells); assay: Immunofluorescence / flow cytometry of CALLA-positive cells in tissues of leukemic SCID mice; type: in vivo, SCID mice (human leukemic cells)
Description: A first assay comprised an immunofluorescence analysis of cALL antigen (CALLA)-positive cells. All BV173 cells but not normal murine hematopoietic cells express this antigen (assay sensitivity=10^-2). Single cell suspensions were prepared for flow cytometry analysis from peripheral blood, spleen and bone marrow cells of the leukemic SCID mice by centrifugation on a lymphocyte-M gradient (Cedarlane Labs, Ltd., Ontario, Canada). Cells (1×10^5) were stained with the FITC-conjugated mouse anti-CALLA monoclonal antibody (Becton-Dickinson Immunocytometry Systems, San Jose, Calif.) to human CD10 antigen. After staining, cells were washed and analyzed by flow cytometry using the Epics Profile Analyzer (Coulter Electronic).
as §1

[4] = tested on: bcr-abl (b2/a2) transcripts; assay: RT-PCR of bcr-abl transcripts in tissues of leukemic SCID mice; type: in vivo, SCID mice (human leukemic cells)
Description: According to a third assay, the extent of leukemic disease was assessed by chain RT-PCR to monitor the expression of b2/a2 transcripts (assay sensitivity=[…]) in total RNA isolated from bone marrow cells, splenocytes, peripheral blood leukocytes, liver, lung and brain tissues. Depending on the number of BV173 cells injected, various numbers of leukemic cells were detected by clonogenic assay and RT-PCR in murine tissues, 3 and 6 weeks after injection. A few days before the expected death of leukemic SCID mice, approximately 80, 65, and 10% cALLA-positive cells were detected in bone marrow cells, splenocytes and peripheral blood leukocytes, respectively.
as §1
At 7 (+7) and 21 (+21) days after injecting SCID mice with 10^6 BV173 cells, single cell suspensions were prepared from various tissues. After lysing red cells with 0.83% NH4 Cl buffered with 0.17 mM Tris-HCl, pH 7.4, total RNA was extracted as described (Chomczynski and Sacchi, Anal. Biochem. 162, 156 (1987)) and the suspension was divided into two equal aliquots. Bcr-abl and β-actin transcripts were reverse-transcribed and amplified with specific primers and Taq polymerase as described by Szczylik et al., Science 253, 562 (1991). Amplification products were separated on a 2% agarose gel, transferred to a nitrocellulose filter and hybridized with a synthetic 40-base c-abl fragment or 20-base β-actinfragment end-labeled with [γ^32 -P]-ATP and polynucleotide kinase. The c-abl probe recognizes an amplified 257-bp sequence containing the bcr-abl junction: the β-actin probe recognizes a 209-bp fragment, contained within the 5' and 3' β-actin primers (Tokunaga et al., Nucleic Acids Res. 14, 2829 (1986)).

BV173 cells [5] = assay: Macroscopic examination / disease state of leukemic SCID mice; type: in vivo, SCID mice (human leukemic cells)
Description: Injection of the mice with BV173 cells induces a disease closely resembling that in human leukemia patients.
as §1

BV173 cells [6] = assay: Survival of leukemic SCID mice; type: in vivo, SCID mice (human leukemic cells); conditions: treatment starting from days +7 or +21 (FIG. 12)
Description: To determine the lethal dose of BV173 cells in the SCID mice, we injected from 10^3 to 10^7 cells into the tail vein and monitored survival at various times postinjection. Mice injected with 10^7, 10^6, 10^5, or 10^4 BV173 cells died 8-10, 9-12, 13-15, or 14-22 weeks later, respectively, due to leukemia cell growth as confirmed on necroscopy. Spleen weight was about 40 times higher than that in noninjected SCID mice while liver and kidneys had numerous metastases and were enlarged 10-fold as compared to noninjected mice. Mice injected with 10^3 BV173 cells were still alive 35 weeks post implantation, and leukemia was never detected. From this study, 10^6 cells was taken as a lethal dose.
as §1

[7] = type: in vivo, SCID mice; conditions: mice treated with bcr-abl antisense
Description: Severe combined immunodeficient (SCID) mice injected with leukemia cells developed a disease process closely resembling that in humans. […] The cell-associated accumulation of antisense oligomer in various organs reached 4-60 μM, which is more than adequate to inhibit growth of leukemic cells. (See FIG. 7).

[8] = from day +21, 26 days after treatment (8 weeks)

With “SEQ ID NO:9: 18-mer antisense oligonucleotide GAAGGGCTTC TGCGTCTC completely complementary to the b1a2 junction (antisense GAAGGGCTTCTGCGTCTC; chemistry not given here)” the leukemic cell number [1] was “significant reduction in leukemic cell number over the control and mismatch-treated cultures”.
For “SEQ ID NO:27: antisense oligodeoxynucleotide TACTGGCCGC TGAAGGGC complementary to 18 nucleotides of the second exon of c-abl (antisense TACTGGCCGCTGAAGGGC; DNA, backbone and methylation of C not given here)”, the “inhibition of the Ph1-positive cell line K562” value (K562) is listed as “inhibition of the Ph^1 -positive cell line K562”, the “reducing bcr-abl protein levels” value (bcr-abl protein; Caracciolo et al., Science 245) is listed as “effective in reducing bcr-abl protein levels” and the “specificity for the bcr-abl junction” value (bcr-abl protein; hybridization to message from untranslocated abl) is listed as “not specific for the bcr-abl junction, as it also hybridizes to the message from untranslocated abl”.
In the case of “SEQ ID NO:29: b2a2 antisense phosphorothioate 26-mer CGCTGAAGGGCTTCTTCCTT ATTGAT (antisense CGCTGAAGGGCTTCTTCCTTATTGAT; all phosphorothioate, sugars by position and methylation of C not given here)”, the inhibition of proliferation (BV173 cells (b2/a2); 3.0 μM, 9 days in culture) is reported as 100%, the “inhibition of proliferation of BV173 cells” value (BV173 cells (b2/a2); in comparison to untreated control cells (FIG. 7)) is reported as “Only the b2/a2 antisense oligodeoxynucleotide inhibited the proliferation of BV173 cells” and the “leukemic colonies, peripheral blood leukocytes” value (BV173 cells [2]; 1 mg/day i.v. x9 from day +7, killed 26 days after last treatment (6 weeks)) is reported as “no detectable colonies”. The “leukemic colonies, peripheral blood mononuclear cells” value (BV173 cells [2]; 1 mg/mouse/day x9 from day +21, 12 days after last treatment (6 weeks), untreated 11.0±8.5) was 0 colonies, the “leukemic colonies, spleen” value (BV173 cells [2]; 1 mg/mouse/day x9 from day +21, 12 days after last treatment (6 weeks), untreated 80.5±12.0) was 0 colonies and the “leukemic colonies, bone marrow” value (BV173 cells [2]; 1 mg/mouse/day x9 from day +21, 26 days after treatment (8 weeks)) was “not after antisense treatment”. For the same substance, the “CALLA+ cells in tissues” value ([3]; from day +7, 26 days after last treatment (6 weeks)) was “No CALLA+ cells were detected”, the “CALLA+ cells in tissues” value ([3]; from day +21, 12 days after last treatment (6 weeks)) was “not detected after antisense treatment” and the “CALLA+ cells in tissues” value [3, 8] was “not detected in the antisense-treated mouse”. For the same substance, the “bcr-abl transcripts in tissues” value ([4]; from day +7, 12 days after last treatment (4 weeks), blood, spleen, bone marrow, liver, lung, brain) was “not in the antisense-treated mouse”, the “bcr-abl (b2/a2) transcripts in tissues” value ([4]; from day +7, 26 days after last treatment (6 weeks), blood leukocytes, spleen, bone marrow, liver, lung, brain) was “no bcr-abl (b2/a2) transcripts in the tissues” and the “RT-PCR product (bcr-abl), spleen” value [4, 8] was “less abundant than in the sense-treated mouse”. The “bcr-abl transcripts in tissues” value [4, 8] was “undetectable after antisense-treatment in each tissue analyzed except spleen”, the “apparently disease-free, days after injection of leukemic cells” value (BV173 cells [5]; 1 mg/mouse x9 i.v. from day 7) was at least 42 days and the “apparently disease-free, days after injection of leukemic cells” value (BV173 cells [5]; 1 mg/mouse x9 i.v. from day 21) was at least 56 days. The “protection from leukemic disease” value (BV173 cells [5]; SCID mice injected with BV173 cells) was “protected from the disease”, the “macroscopic examination: metastases / leukemic nodules in liver, kidneys, splenomegaly” value (BV173 cells [5]; from day +21, 26 days after treatment (8 weeks), FIG. 11) was “not in antisense-treated animal” and the “mortality / survival outcome” value (BV173 cells [6]) was “prolonged survival”. For the same substance, the “survival after i.v. injection of 10^6 BV173 cells” value (BV173 cells [6]) was at least 16 weeks and the “cell-associated accumulation of antisense oligomer in various organs” value [7] was 4 to 60 µM.

From patent US5652222A, “Selective inhibition of leukemic cell proliferation by bcr-abl antisense oligonucleotides” (Temple University-of The Commonwealth System of Higher …, priority 1993, dated 1997)
